Test results reported in US9993459B2, “Selective HDAC6 inhibitors and uses thereof” (Universiteit Gent, priority 2015, dated 2018).

How the values were obtained:
NF-κβ = test: NF-κβ-dependent luciferase reporter p(IL6kB)350hu.IL6P-luc in TNF-activated A549 cells; assay type: cell-based; conditions: TNF-activated A549, 1 μM or 10 μM
Protocol: (§1) FIG. 2: A549 cells with the stably integrated recombinant reporter gene p(GRE)2-50-luc (A) were pre-incubated with respective solvents, the selective Glucocorticoid Receptor modulator CpdA (10 μM), 7a, (1 μM or 10 μM), 7b (1 μM or 10 μM), 13a (1 μM or 10 μM) for 1 h after which the synthetic glucocorticoid dexamethasone (DEX,1 μM) was added, where indicated, for 5 h. A549 cells with the stably integrated recombinant reporter gene p(IL6kB)350hu.IL6P-luc (B) or Collagenase-luc (C) were pre-incubated with respective solvents, DEX (1 μM), CpdA (10 μM), 7a, (1 μM or 10 μM), 7b (1 μM or 10 μM), 13a (1 μM or 10 μM) for 1 h after which TNF (2000 units/ml) or PMA (20 nM) were added, where indicated, for 5 h. Cell lysates were assayed for luciferase activities. Promoter activities are expressed as relative induction factor calculated as percentage of maximal DEX (A), TNF (B) or PMA (C) responses. […] Assays were performed in triplicate, and results are averages of at least three independent experiments and shown ±S.D. ****p<0.0001; ***p<0.001; **p<0.01; *p<0.05. Statistical significance was determined on the averaged results, and analysis performed using one-way ANOVA tests followed by a Tukey multiple comparison post test. […]

AP-1 = test: AP1-dependent luciferase reporter pCollagenase-luc in PMA-treated A549 cells; assay type: cell-based; conditions: A549, 10 μM
Protocol: as §1

## O=C(NO)c1ccc(NCc2csc3ccccc23)cc1 [Compound 7a, 3-[(4-hydroxycarbamoylphenyl)aminomethyl]benzothiophene]
NF-κβ
  block of the activity of NF-κβ: not able to block the activity of NF-κβ

## O=C(NO)c1ccc(NCc2csc3ccc(Br)cc23)cc1 [Compound 7b, 5-bromo-3-[(4-hydroxycarbamoylphenyl)aminomethyl]-benzothiophene]
NF-κβ
  block of the activity of NF-κβ: not able to block the activity of NF-κβ
AP-1
  AP1-dependent promoter activity as compared to solvent control (DMSO): clearly induced the AP1-dependent promoter activity
